Measured values as given in patent US11000033B2, “Ketone or oxime compound, and herbicide” (NISSAN CHEMICAL CORPORATION, priority 2014, dated 2021).

Legend:
Type in all cases: in vivo
[1] = test system: Echinochloa crus-galli var. crus-galli; test: Test Example 5: herbicidal effect by foliage application, plastic box (symbol H); details: 320 g/ha, 3 weeks after application
In short: (§1)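 Post-emergence spray; diluvial soil (sterilized), ~1.5 cm seed cover; greenhouse 25–30° C; 14-day-old plants; water-diluted emulsion at predetermined dose; visual score at 3 wk post-treatment.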

[2] = test system: Digitaria ciliaris; test: Test Example 5: herbicidal effect by foliage application, plastic box (symbol F); details: 320 g/ha, 3 weeks after application
In short: as §1

[3] = test system: Setaria viridis; test: Test Example 4: herbicidal effect by soil treatment (symbol G); details: for G (Setaria viridis) herbicidal effect grade: application herbicide amount 320 g/ha; for G: Setaria viridis, herbicidal effect grade: 320 g/ha
In short: (§2)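 Seeds were sown in sterilized diluvial soil, covered with about 1.5 cm of soil, and the soil surface was sprayed with a water-diluted emulsion of the compound at a predetermined rate. Plants grew in a greenhouse at 25° C. to 30° C.; effects were scored visually 3 weeks after application.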

[4] = test system: Monochoria vaginalis; test: Test Example 2: herbicidal activity, application during weed generation in submerged conditions (symbol C); details: Table 23; application herbicide amount 320 g/ha; grade 0-5 by criteria of Test Example 1
In short: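 Submerged alluvial soil (4 cm) sown with mixed seed; greenhouse 25–30° C. 1–2 leaf: diluted emulsion onto water surface, preset dose. Visual score, 3 wk.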

[5] = test system: Apera spica-venti; test: Test Example 4: herbicidal effect by soil treatment (symbol L); details: for L (Apera spica-venti) herbicidal effect grade: application herbicide amount 320 g/ha; for L: Apera spica-venti, herbicidal effect grade: 320 g/ha
In short: as §2

[6] = test system: Avena fatua; test: Test Example 4: herbicidal effect by soil treatment (symbol I); details: for I (Avena fatua) herbicidal effect grade: application herbicide amount 320 g/ha; for I: Avena fatua, herbicidal effect grade: 320 g/ha
In short: as §2

[7] = test system: Avena fatua; test: Test Example 5: herbicidal effect by foliage application, plastic box (symbol I); details: 320 g/ha, 3 weeks after application
In short: as §1

[8] = test system: rapeseed; test: Test Example 4: effect on crop by soil treatment (symbol g); details: for g (rapeseed) effect on crop grade: application herbicide amount 320 g/ha; for g: rapeseed, effect grade on crop: 320 g/ha
In short: (§3)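 Crop seed is sown in spots together with several weed species in a box of sterilized diluvial soil. It is covered by about 1.5 cm of soil and kept in a greenhouse held between 25° C. and 30° C.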

[9] = test system: Abutilon theophrasti; test: Test Example 5: herbicidal effect by foliage application, plastic box (symbol M); details: 320 g/ha, 3 weeks after application
In short: as §1

[10] = test system: Setaria viridis; test: Test Example 5: herbicidal effect by foliage application, plastic box (symbol G); details: 320 g/ha, 3 weeks after application
In short: as §1

[11] = test system: Veronica persica; test: Test Example 5: herbicidal effect by foliage application, plastic box (symbol R); details: 320 g/ha, 3 weeks after application
In short: as §1

[12] = test system: rice; test: Test Example 4: effect on crop by soil treatment (symbol b); details: for b (directly sowed rice plant) effect on crop grade: application herbicide amount 320 g/ha; for b: directly sowed rice plant, effect grade on crop: 320 g/ha
In short: as §3

[13] = test system: soybean; test: Test Example 5: effect on crop by foliage application, plastic box (symbol d); details: 320 g/ha, 3 weeks after application
In short: (§4)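 In a plastic box 7 cm deep filled with sterilized diluvial soil, seeds of crops and weeds such as Digitaria ciliaris, Avena fatua and Amaranthus retroflexus are sown in spots and covered with about 1.5 cm of soil before greenhouse growth at 25–30° C.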

[14] = test system: Scirpus juncoides; test: Test Example 1: herbicidal activity, application before weed generation in submerged conditions (symbol B); details: application herbicide amount 320 g/ha
In short: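 Steps: alluvial soil flooded to 4 cm; weed seeds sown together; rice seedlings (2.5 leaf) transplanted; diluted emulsion applied to water surface the same day as sowing; plants grown at 25–30 °C in greenhouse; herbicidal effect rated on a 0–5 scale at 3 weeks.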

[15] = test system: Apera spica-venti; test: Test Example 5: herbicidal effect by foliage application, plastic box (symbol L); details: 320 g/ha, 3 weeks after application
In short: as §1

[16] = test system: rapeseed; test: Test Example 5: effect on crop by foliage application, plastic box (symbol g); details: 320 g/ha, 3 weeks after application
In short: as §4

[17] = test system: Chenopodium album; test: Test Example 5: herbicidal effect by foliage application, plastic box (symbol O); details: 320 g/ha, 3 weeks after application
In short: as §1

[18] = test system: Veronica persica; test: Test Example 4: herbicidal effect by soil treatment (symbol R); details: for R (Veronica persica) herbicidal effect grade: application herbicide amount 320 g/ha; for R: Veronica persica, herbicidal effect grade: 320 g/ha
In short: as §2

Row | SMILES | H: Echinochloa crus-galli var. crus-galli, herbicidal effect grade [1] | F: Digitaria ciliaris, herbicidal effect grade [2] | G (Setaria viridis) herbicidal effect grade [3] | Herbicidal effect grade, C: Monochoria vaginalis [4] | L (Apera spica-venti) herbicidal effect grade [5] | I (Avena fatua) herbicidal effect grade [6] | I: Avena fatua, herbicidal effect grade [7] | g (rapeseed) effect on crop grade [8] | M: Abutilon theophrasti, herbicidal effect grade [9] | G: Setaria viridis, herbicidal effect grade [10] | R: Veronica persica, herbicidal effect grade [11] | b (directly sowed rice plant) effect on crop grade [12] | d: soybean, effect on crop grade [13] | Herbicidal effect grade, B: Scirpus juncoides [14] | L: Apera spica-venti, herbicidal effect grade [15] | g: rapeseed, effect on crop grade [16] | O: Chenopodium album, herbicidal effect grade [17] | R (Veronica persica) herbicidal effect grade [18] | H: Echinochloa crus-galli var. crus-galli, herbicidal effect (criteria 0-5) [1] | F: Digitaria ciliaris, herbicidal effect (criteria 0-5) [2] | further results
1 | CON=C(CC1CC1)CC1CC(O)=C(c2c(C)cc(C)cc2C)C1=O (stereo not drawn) [1-070] | 3 (Herbicidal ratio of 40% or higher and lower than 70%) | 1 (Herbicidal ratio of 5% or higher and lower than 20%) | 4 (Herbicidal ratio of 70% or higher and lower than 90%) | 0 (Herbicidal ratio of 5% or lower (almost no effect)) | 5 (Herbicidal ratio of 90% or more (almost completely withered)) | 0 (Herbicidal ratio of 5% or lower (almost no effect)) | 5 (Herbicidal ratio of 90% or more (almost completely withered)) | 0 (Herbicidal ratio of 5% or lower (almost no effect)) | 0 (Herbicidal ratio of 5% or lower (almost no effect)) | 5 (Herbicidal ratio of 90% or more (almost completely withered)) | 2 (Herbicidal ratio of 20% or higher and lower than 40%) | 5 (Herbicidal ratio of 90% or more (almost completely withered)) | 0 (Herbicidal ratio of 5% or lower (almost no effect)) | 0 (Herbicidal ratio of 5% or lower (almost no effect)) | 4 (Herbicidal ratio of 70% or higher and lower than 90%) | 3 (Herbicidal ratio of 40% or higher and lower than 70%) | 1 (Herbicidal ratio of 5% or higher and lower than 20%) | 0 (Herbicidal ratio of 5% or lower (almost no effect)) | – | – | –
2 | CON=C(C)CC1CC(OC(=O)COc2ccc(C)cc2)=C(c2c(C)cc(C)cc2C)C1=O (stereo not drawn) [1-072] | 5 (Herbicidal ratio of 90% or more (almost completely withered)) | 5 (Herbicidal ratio of 90% or more (almost completely withered)) | 5 (Herbicidal ratio of 90% or more (almost completely withered)) | 0 (Herbicidal ratio of 5% or lower (almost no effect)) | 5 (Herbicidal ratio of 90% or more (almost completely withered)) | 4 (Herbicidal ratio of 70% or higher and lower than 90%) | 5 (Herbicidal ratio of 90% or more (almost completely withered)) | 4 (Herbicidal ratio of 70% or higher and lower than 90%) | 5 (Herbicidal ratio of 90% or more (almost completely withered)) | 5 (Herbicidal ratio of 90% or more (almost completely withered)) | 3 (Herbicidal ratio of 40% or higher and lower than 70%) | 5 (Herbicidal ratio of 90% or more (almost completely withered)) | 2 (Herbicidal ratio of 20% or higher and lower than 40%) | 4 (Herbicidal ratio of 70% or higher and lower than 90%) | 5 (Herbicidal ratio of 90% or more (almost completely withered)) | 4 (Herbicidal ratio of 70% or higher and lower than 90%) | 1 (Herbicidal ratio of 5% or higher and lower than 20%) | 0 (Herbicidal ratio of 5% or lower (almost no effect)) | – | – | –
3 | CON=C(C)CC1CC(OC(=O)COc2ccc(C=O)cc2)=C(c2c(C)cc(C)cc2C)C1=O (stereo not drawn) [1-079] | – | – | – | 3 (Herbicidal ratio of 40% or higher and lower than 70%) | – | – | – | – | – | – | – | – | – | 5 (Herbicidal ratio of 90% or more (almost completely withered)) | – | – | – | – | 5 (Herbicidal ratio of 90% or more (almost completely withered)) | 5 (Herbicidal ratio of 90% or more (almost completely withered)) | G: Setaria viridis, herbicidal effect grade [3]: 5 (Herbicidal ratio of 90% or more (almost completely withered)); L: Apera spica-venti, herbicidal effect grade [5]: 5 (Herbicidal ratio of 90% or more (almost completely withered)); I: Avena fatua, herbicidal effect grade [6]: 3 (Herbicidal ratio of 40% or higher and lower than 70%); I: Avena fatua, herbicidal effect (criteria 0-5) [7]: 5 (Herbicidal ratio of 90% or more (almost completely withered)); g: rapeseed, effect grade on crop [8]: 4 (Herbicidal ratio of 70% or higher and lower than 90%); M: Abutilon theophrasti, herbicidal effect (criteria 0-5) [9]: 4 (Herbicidal ratio of 70% or higher and lower than 90%); G: Setaria viridis, herbicidal effect (criteria 0-5) [10]: 5 (Herbicidal ratio of 90% or more (almost completely withered)); R: Veronica persica, herbicidal effect (criteria 0-5) [11]: 3 (Herbicidal ratio of 40% or higher and lower than 70%); b: directly sowed rice plant, effect grade on crop [12]: 5 (Herbicidal ratio of 90% or more (almost completely withered)); d: soybean, effect on crop (criteria 0-5) [13]: 4 (Herbicidal ratio of 70% or higher and lower than 90%); L: Apera spica-venti, herbicidal effect (criteria 0-5) [15]: 5 (Herbicidal ratio of 90% or more (almost completely withered)); g: rapeseed, effect on crop (criteria 0-5) [16]: 5 (Herbicidal ratio of 90% or more (almost completely withered)); O: Chenopodium album, herbicidal effect (criteria 0-5) [17]: 0 (Herbicidal ratio of 5% or lower (almost no effect)); R: Veronica persica, herbicidal effect grade [18]: 0 (Herbicidal ratio of 5% or lower (almost no effect))
4 | CON=C(C)CC1CC(OC(=O)COc2ccc(C(C)=O)cc2)=C(c2c(C)cc(C)cc2C)C1=O (stereo not drawn) [1-080] | – | – | – | 2 (Herbicidal ratio of 20% or higher and lower than 40%) | – | – | – | – | – | – | – | – | – | 5 (Herbicidal ratio of 90% or more (almost completely withered)) | – | – | – | – | 5 (Herbicidal ratio of 90% or more (almost completely withered)) | 5 (Herbicidal ratio of 90% or more (almost completely withered)) | G: Setaria viridis, herbicidal effect grade [3]: 5 (Herbicidal ratio of 90% or more (almost completely withered)); L: Apera spica-venti, herbicidal effect grade [5]: 5 (Herbicidal ratio of 90% or more (almost completely withered)); I: Avena fatua, herbicidal effect grade [6]: 3 (Herbicidal ratio of 40% or higher and lower than 70%); I: Avena fatua, herbicidal effect (criteria 0-5) [7]: 5 (Herbicidal ratio of 90% or more (almost completely withered)); g: rapeseed, effect grade on crop [8]: 4 (Herbicidal ratio of 70% or higher and lower than 90%); M: Abutilon theophrasti, herbicidal effect (criteria 0-5) [9]: 4 (Herbicidal ratio of 70% or higher and lower than 90%); G: Setaria viridis, herbicidal effect (criteria 0-5) [10]: 5 (Herbicidal ratio of 90% or more (almost completely withered)); R: Veronica persica, herbicidal effect (criteria 0-5) [11]: 1 (Herbicidal ratio of 5% or higher and lower than 20%); b: directly sowed rice plant, effect grade on crop [12]: 5 (Herbicidal ratio of 90% or more (almost completely withered)); d: soybean, effect on crop (criteria 0-5) [13]: 4 (Herbicidal ratio of 70% or higher and lower than 90%); L: Apera spica-venti, herbicidal effect (criteria 0-5) [15]: 5 (Herbicidal ratio of 90% or more (almost completely withered)); g: rapeseed, effect on crop (criteria 0-5) [16]: 4 (Herbicidal ratio of 70% or higher and lower than 90%); O: Chenopodium album, herbicidal effect (criteria 0-5) [17]: 3 (Herbicidal ratio of 40% or higher and lower than 70%); R: Veronica persica, herbicidal effect grade [18]: 0 (Herbicidal ratio of 5% or lower (almost no effect))
